Experimental data as given in ChEMBL document CHEMBL1697781, “Assessment of the health effects of chemicals in humans: II. Construction of an adverse effects database for QSAR modeling” (Curr Drug Discov Technol, 2004).

Columns and labels:
Settings in all cases: human; call rule not given here
Hepatotoxicity [1] = experiment: FDA HLAED, serum glutamic oxaloacetic transaminase (SGOT) increase
Hepatotoxicity [2] = experiment: FDA HLAED, lactate dehydrogenase (LDH) increase
Hepatotoxicity [3] = experiment: FDA HLAED, liver enzyme composite activity
Hepatotoxicity [4] = experiment: FDA HLAED, alkaline phosphatase increase
Hepatotoxicity [5] = experiment: FDA HLAED, gamma-glutamyl transferase (GGT) increase
Hepatotoxicity [6] = experiment: FDA HLAED, serum glutamic pyruvic transaminase (SGPT) increase
Wherever GGT Increase - Index Value is given: reference of the scale not given here.
Wherever LDH Increase - Index Value is given: reference of the scale not given here.

Row | Structure (SMILES) | SGOT Increase - Activity Score (Hepatotoxicity [1]) | SGOT Increase - Index Value (Hepatotoxicity [1]) | SGOT Increase - Number of Reports (Hepatotoxicity [1]) | LDH Increase - Activity Score (Hepatotoxicity [2]) | LDH Increase - Index Value (Hepatotoxicity [2]) | LDH Increase - Number of Reports (Hepatotoxicity [2]) | Composite Activity - Active (Hepatotoxicity [3]) | Composite Activity - Marginal (Hepatotoxicity [3]) | Composite Activity - Score (Hepatotoxicity [3]) | Alkaline Phosphatase Increase - Activity Score (Hepatotoxicity [4]) | Alkaline Phosphatase Increase - Index Value (Hepatotoxicity [4]) | Alkaline Phosphatase Increase - Number of Reports (Hepatotoxicity [4]) | GGT Increase - Activity Score (Hepatotoxicity [5]) | GGT Increase - Index Value (Hepatotoxicity [5]) | GGT Increase - Number of Reports (Hepatotoxicity [5]) | SGPT Increase - Activity Score (Hepatotoxicity [6]) | SGPT Increase - Index Value (Hepatotoxicity [6]) | SGPT Increase - Number of Reports (Hepatotoxicity [6])
1 | CN1CC[C@]23c4c5ccc(O)c4O[C@H]2C(=O)CC[C@H]3[C@H]1C5 [HYDROMORPHONE] | Inactive | 0 | < 4 | Inactive | 0 | < 4 | 0 | 0 | Inactive | Inactive | 0 | < 4 | Inactive | 0 | < 4 | Inactive | 0 | < 4
2 | CCCCCCCN(CC)CCCC(O)c1ccc(NS(C)(=O)=O)cc1 (stereo not drawn) [IBUTILIDE] | Inactive | 0 | < 4 | Inactive | 0 | < 4 | 0 | 0 | Inactive | Inactive | 0 | < 4 | Inactive | 0 | < 4 | Inactive | 0 | < 4
3 | CC(=O)[C@]1(O)Cc2c(O)c3c(c(O)c2[C@@H](O[C@H]2C[C@H](N)[C@H](O)[C@H](C)O2)C1)C(=O)c1ccccc1C3=O [IDARUBICIN] | Inactive | 0 | < 4 | Inactive | 0 | < 4 | 0 | 0 | Inactive | Inactive | 0 | < 4 | Inactive | 0 | < 4 | Inactive | 0 | < 4
4 | O=P1(NCCCl)OCCCN1CCCl (stereo not drawn) [IFOSFAMIDE] | Active | 17.5 | >= 4 | Inactive | 7.5 | < 4 | 1 | 0 | Inactive | Inactive | 5 | < 4 | Inactive | 0 | < 4 | Inactive | 7.5 | < 4
5 | Nc1cc(-c2ccncc2)c[nH]c1=O [INAMRINONE] | Inactive | 6.6 | < 4 | Inactive | 2.2 | < 4 | 0 | 0 | Inactive | Inactive | 2.2 | < 4 | Inactive | 0 | < 4 | Inactive | 4.4 | < 4
6 | CC1Cc2ccccc2N1NC(=O)c1ccc(Cl)c(S(N)(=O)=O)c1 (stereo not drawn) [INDAPAMIDE] | Inactive | 1 | < 4 | Inactive | 0.5 | < 4 | 0 | 0 | Inactive | Inactive | 0.5 | < 4 | Inactive | 0 | < 4 | Inactive | 0.5 | < 4
